Laboratory results published in patent US10954214B2 (Janssen Pharmaceutica NV, priority 2016, dated 2021).

Assays:
[1] = molecular target: full-length MALT1 protein (Strep-MALT1(1-824)-His) (Homo sapiens (Human), UniProt Q9UDY8); assay: MALT1 Biochemical Protease Assay (Ac-LRSR-AMC substrate); conditions: 10 nM FL MALT1, 200 μM Ac-LRSR-AMC, 4 h at RT; read-out: MALT1_Biochemical activity (Ac-LRSR-amc) IC50
Procedure, shortened: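 Full-length MALT1 pre-incubated with compounds (30 μM to 0.5 nM, 11 threefold steps) for 50 min at RT. After Ac-LRSR-AMC was added, the reaction ran 4 h at RT and AMC fluorescence was read. IC50 and Hill slope from curve fitting against no-enzyme and no-compound controls.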

[2] = test system: IL6 secretion by OCI-LY3 ABC-DLBCL cells; assay: Human IL6 Mesoscale assay (OCI-LY3); assay type: cell-based; conditions: Homo sapiens, 24 h
Procedure, shortened: (§1)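 After 24 h at 37 °C with test compounds (15 μM down to 58.6 nM, 9 twofold steps, 0.3% DMSO), IL6 and IL10 secreted by 100,000 OCI-LY3 or TMD8 cells per well were measured in supernatants with a Mesoscale immunoassay. Data were scaled between DMSO wells (high) and RN486 treatment (low).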

[3] = test system: IL10 secretion by OCI-LY3 ABC-DLBCL cells; assay: Human IL10 Mesoscale assay (OCI-LY3); assay type: cell-based; conditions: Homo sapiens, 24 h
Procedure, shortened: as §1

Sequence of full-length MALT1 protein (Strep-MALT1(1-824)-His) (Q9UDY8 whole entry): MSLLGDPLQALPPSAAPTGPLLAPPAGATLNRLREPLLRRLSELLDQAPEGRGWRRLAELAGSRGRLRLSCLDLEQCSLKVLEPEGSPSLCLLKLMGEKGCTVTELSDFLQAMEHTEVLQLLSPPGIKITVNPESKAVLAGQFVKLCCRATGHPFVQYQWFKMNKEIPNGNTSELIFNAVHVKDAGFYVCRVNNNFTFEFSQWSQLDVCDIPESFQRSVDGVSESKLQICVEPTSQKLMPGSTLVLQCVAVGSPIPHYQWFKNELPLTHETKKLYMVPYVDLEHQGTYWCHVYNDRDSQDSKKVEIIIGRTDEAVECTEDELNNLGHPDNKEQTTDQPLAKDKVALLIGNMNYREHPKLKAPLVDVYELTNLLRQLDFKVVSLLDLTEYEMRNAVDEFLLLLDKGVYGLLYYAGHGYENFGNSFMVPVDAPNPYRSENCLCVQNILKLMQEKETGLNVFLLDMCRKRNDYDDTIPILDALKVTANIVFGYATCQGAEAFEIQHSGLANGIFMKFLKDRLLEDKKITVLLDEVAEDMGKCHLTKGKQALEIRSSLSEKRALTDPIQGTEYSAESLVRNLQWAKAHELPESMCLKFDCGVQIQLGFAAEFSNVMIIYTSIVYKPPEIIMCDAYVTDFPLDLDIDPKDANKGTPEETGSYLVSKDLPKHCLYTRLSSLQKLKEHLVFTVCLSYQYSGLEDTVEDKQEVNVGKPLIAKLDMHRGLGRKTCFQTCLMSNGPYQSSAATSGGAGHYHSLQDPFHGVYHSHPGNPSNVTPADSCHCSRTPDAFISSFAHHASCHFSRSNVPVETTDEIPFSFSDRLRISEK

Row | IC50 [1] [nM] | IC50 [2] [nM] | IC50 [3] [nM] | Structure (SMILES)
1 | 380 | 1120 | 891 | N#Cc1c(C(=O)Nc2cnc(-n3nccn3)c(Cl)c2)cnn1-c1cccc2ncccc12 [Cpd 186, N-(5-Chloro-6-(2H-1,2,3-triazol-2-yl)pyridin-3-yl)-5-cyano-1-(quinolin-5-yl)-1H-pyrazole-4-carboxamide]
2 | 174 | 437 | 309 | COc1cc(-n2ncc(C(=O)Nc3cnc(-n4nccn4)c(Cl)c3)c2C(F)(F)F)c2ccccc2n1 [Cpd 417, N-(5-chloro-6-(2H-1,2,3-triazol-2-yl)pyridin-3-yl)-1-(2-methoxyquinolin-4-yl)-5-(trifluoromethyl)-1H-pyrazole-4-carboxamide]
3 | 72 | 166 | 182 | O=C(Nc1cnc(-n2nccn2)c(Cl)c1)c1cnn(-c2cnc(Cl)c3sccc23)c1C(F)(F)F [Cpd 424, N-(5-chloro-6-(2H-1,2,3-triazol-2-yl)pyridin-3-yl)-1-(7-chlorothieno[2,3-c]pyridin-4-yl)-5-(trifluoromethyl)-1H-pyrazole-4-carboxamide]
4 | 447 | 46 | 24 | O=C(Nc1cnc(-n2nccn2)c(Cl)c1)c1cnn(-c2cnc(C3CCCN3)c3ccccc23)c1C(F)(F)F (stereo not drawn) [Cpd 380, N-(5-chloro-6-(2H-1,2,3-triazol-2-yl)pyridin-3-yl)-1-(1-(pyrrolidin-2-yl)isoquinolin-4-yl)-5-(trifluoromethyl)-1H-pyrazole-4-carboxamide]
5 | 1260 | 204 | 182 | O=C(Nc1ccnc(C2CC2)c1)c1cnn(-c2cccc3c(=O)[nH]ccc23)c1C(F)(F)F [Cpd 350, N-(2-cyclopropylpyridin-4-yl)-1-(1-oxo-1,2-dihydroisoquinolin-5-yl)-5-(trifluoromethyl)-1H-pyrazole-4-carboxamide]
6 | 65 | 72 | 66 | Cc1cc(-n2nccn2)c(Cl)cc1NC(=O)c1cnn(-c2cncc3c(F)cccc23)c1C(F)(F)F [Cpd 317, N-(5-chloro-2-methyl-4-(2H-1,2,3-triazol-2-yl)phenyl)-1-(8-fluoroisoquinolin-4-yl)-5-(trifluoromethyl)-1H-pyrazole-4-carboxamide]
7 | 331 | 29 | 26 | O=C(Nc1cnc(-n2nccn2)c(Cl)c1)c1cnn(-c2cc(C3CCN3)nc3ccccc23)c1C(F)(F)F (stereo not drawn) [Cpd 382, 1-(2-(azetidin-2-yl)quinolin-4-yl)-N-(5-chloro-6-(2H-1,2,3-triazol-2-yl)pyridin-3-yl)-5-(trifluoromethyl)-1H-pyrazole-4-carboxamide]
8 | 72 | 182 | 69 | N#Cc1cc(NC(=O)c2cnn(-c3ncnc4ccccc34)c2C(F)(F)F)cnc1-n1nccn1 [Cpd 296, N-(5-cyano-6-(2H-1,2,3-triazol-2-yl)pyridin-3-yl)-1-(quinazolin-4-yl)-5-(trifluoromethyl)-1H-pyrazole-4-carboxamide]
9 | 115 | 692 | 537 | O=C(Nc1cncc(Cl)c1)c1cnn(-c2cccc3c(=O)[nH]ccc23)c1C(F)(F)F [Cpd 353, N-(5-chloropyridin-3-yl)-1-(1-oxo-1,2-dihydroisoquinolin-5-yl)-5-(trifluoromethyl)-1H-pyrazole-4-carboxamide]
10 | 110 | 115 | 98 | O=C(Nc1cnc(-n2nccn2)c(Cl)c1)c1cnn(-c2cnc(C3COCCO3)c3ccccc23)c1C(F)(F)F (stereo not drawn) [Cpd 367, 1-(1-(1,4-dioxan-2-yl)isoquinolin-4-yl)-N-(5-chloro-6-(2H-1,2,3-triazol-2-yl)pyridin-3-yl)-5-(trifluoromethyl)-1H-pyrazole-4-carboxamide]
11 | 17 | 117 | 95 | O=C(Nc1cnc(-n2nccn2)c(Cl)c1)c1cnn(-c2cnc(N3CC[C@H](O)C3)c3sccc23)c1C(F)(F)F [Cpd 431, (S)—N-(5-chloro-6-(2H-1,2,3-triazol-2-yl)pyridin-3-yl)-1-(7-(3-hydroxypyrrolidin-1-yl)thieno[2,3-c]pyridin-4-yl)-5-(trifluoromethyl)-1H-pyrazole-4-carboxamide]
12 | 95 | 50 | 36 | O=C(Nc1cnc(-n2nccn2)c(Cl)c1)c1cnn(-c2cnc(C(F)F)c3ccccc23)c1C(F)(F)F [Cpd 394, N-(5-chloro-6-(2H-1,2,3-triazol-2-yl)pyridin-3-yl)-1-(1-(difluoromethyl)isoquinolin-4-yl)-5-(trifluoromethyl)-1H-pyrazole-4-carboxamide]
13 | 52 | 457 | 437 | N#Cc1ncc(NC(=O)c2cnn(-c3cccc4c(=O)[nH]ccc34)c2C(F)(F)F)cc1C(F)(F)F [Cpd 354, N-(6-cyano-5-(trifluoromethyl)pyridin-3-yl)-1-(1-oxo-1,2-dihydroisoquinolin-5-yl)-5-(trifluoromethyl)-1H-pyrazole-4-carboxamide]
14 | 219 | 145 | 151 | Cn1ncc2ccnc(-n3ncc(C(=O)Nc4cnc(-n5nccn5)c(C#N)c4)c3C(F)(F)F)c21 [Cpd 259, N-(5-cyano-6-(2H-1,2,3-triazol-2-yl)pyridin-3-yl)-1-(1-methyl-1H-pyrazolo[3,4-c]pyridin-7-yl)-5-(trifluoromethyl)-1H-pyrazole-4-carboxamide]
15 | 74 | 1260 | 724 | Cc1nc2ccccn2c1-n1ncc(C(=O)Nc2cnc(-n3nccn3)c(C#N)c2)c1C(F)(F)F [Cpd 295, N-(5-cyano-6-(2H-1,2,3-triazol-2-yl)pyridin-3-yl)-1-(2-methylimidazo[1,2-a]pyridin-3-yl)-5-(trifluoromethyl)-1H-pyrazole-4-carboxamide]
16 | 83 | 162 | 138 | Cc1nc(-n2nccn2)c(Cl)cc1NC(=O)c1cnn(-c2ccc(C)n3nccc23)c1C(F)(F)F [Cpd 318, N-(5-chloro-2-methyl-6-(2H-1,2,3-triazol-2-yl)pyridin-3-yl)-1-(7-methylpyrazolo[1,5-a]pyridin-4-yl)-5-(trifluoromethyl)-1H-pyrazole-4-carboxamide]
17 | 316 | 269 | 407 | N#Cc1cc(NC(=O)c2cnn(-c3ccnc4nccn34)c2C(F)(F)F)cnc1-n1nccn1 [Cpd 250, N-(5-cyano-6-(2H-1,2,3-triazol-2-yl)pyridin-3-yl)-1-(imidazo[1,2-a]pyrimidin-5-yl)-5-(trifluoromethyl)-1H-pyrazole-4-carboxamide]
18 | 240 | 257 | 240 | COC(=O)c1cnn(-c2ccc(NC(=O)c3cnn(-c4cccc5ncccc45)c3C(F)(F)F)cc2Cl)n1 [Cpd 256, methyl 2-(2-chloro-4-(1-(quinolin-5-yl)-5-(trifluoromethyl)-1H-pyrazole-4-carboxamido)phenyl)-2H-1,2,3-triazole-4-carboxylate]
19 | 245 | 447 | 339 | O=C(Nc1cnc(-n2nnc3cccnc32)c(Cl)c1)c1cnn(-c2cccc3ncccc23)c1C(F)(F)F [Cpd 165, N-(6-(3H-[1,2,3]triazolo[4,5-b]pyridin-3-yl)-5-chloropyridin-3-yl)-1-(quinolin-5-yl)-5-(trifluoromethyl)-1H-pyrazole-4-carboxamide]
20 | 380 | 135 | 63 | NC(=O)c1cn(-c2ncc(NC(=O)c3cnn(-c4cccc5ncccc45)c3C(F)(F)F)cc2Cl)nn1 [Cpd 246, 1-(3-chloro-5-(1-(quinolin-5-yl)-5-(trifluoromethyl)-1H-pyrazole-4-carboxamido)pyridin-2-yl)-1H-1,2,3-triazole-4-carboxamide]
21 | 501 | 309 | 339 | Nc1ccc2c(-n3ncc(C(=O)Nc4cnc(-n5nccn5)c(Cl)c4)c3C(F)(F)F)cccc2n1 [Cpd 331, 1-(2-aminoquinolin-5-yl)-N-(5-chloro-6-(2H-1,2,3-triazol-2-yl)pyridin-3-yl)-5-(trifluoromethyl)-1H-pyrazole-4-carboxamide]
22 | 145 | 85 | 66 | Cn1ccc(-c2ncc(NC(=O)c3cnn(-c4ccc(F)c5ncccc45)c3C(F)(F)F)cc2Cl)n1 [Cpd 273, N-(5-chloro-6-(1-methyl-1H-pyrazol-3-yl)pyridin-3-yl)-1-(8-fluoroquinolin-5-yl)-5-(trifluoromethyl)-1H-pyrazole-4-carboxamide]
23 | 30 | 251 | 112 | CSc1ncc(-n2ncc(C(=O)Nc3cnc(-n4nccn4)c(Cl)c3)c2C(F)(F)F)c2ccccc12 [Cpd 429, N-(5-chloro-6-(2H-1,2,3-triazol-2-yl)pyridin-3-yl)-1-(1-(methylthio)isoquinolin-4-yl)-5-(trifluoromethyl)-1H-pyrazole-4-carboxamide]
24 | 20 | 69 | 37 | Cc1nc(-n2nccn2)c(Br)cc1NC(=O)c1cnn(-c2cnc(N)c3ccccc23)c1C(F)(F)F [Cpd 343, 1-(1-aminoisoquinolin-4-yl)-N-(5-bromo-2-methyl-6-(2H-1,2,3-triazol-2-yl)pyridin-3-yl)-5-(trifluoromethyl)-1H-pyrazole-4-carboxamide]
